Results on 14 compounds are retold here after PubChem BioAssay (NCI).

The structures appear in SMILES notation.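 1) Cells in 96-well plates. 2) Compound, 48 h, 5 concentrations. 3) Linear interpolation between surrounding doses. 4) Unreached endpoint = highest concentration. TGI: concentration producing complete growth inhibition.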

Assay in all cases: NCI anticancer screen, dose series, 48 h
Experiment [1] deals with A549 NSCLC.
The subject of experiment [2] is HCC-2998 colon.
Experiment [3] deals with MCF7 breast.
In experiment [4] the test system is MDA-N.
Experiment [5] deals with OVCAR-8 ovarian.
For experiment [6], the system named is PC-3 prostate.
Experiment [7] has as its system RPMI-8226 leukemia.
In experiment [8] the test system is SR leukemia.
The test system of experiment [9] is A498 renal.
For experiment [10], the system named is CAKI-1 renal.

Take `Cc1cc2ccccc2n1CC(=O)N1CCCC1`: the TGI in experiment [1], in experiment [2], in [3], in experiment [4], in experiment [5] and in experiment [6] was over 100 µM each time. In addition, the TGI in experiment [7] and in [8] was over 100 µM each time.
On to `Cc1ccc(C)c(COCCOCn2cc(Br)c(N)nc2=O)c1`, for which the TGI in experiment [9], in experiment [1], in [10], in experiment [2], in experiment [3] and in experiment [4] was over 100 µM in each case. Further, the TGI in [5], in experiment [6] and in experiment [8] was over 100 µM throughout.
On to `O=c1c2ccccc2n2nnc3ccc(NCCCNCCNCCCNc4ccc5nnn6c7ccccc7c(=O)c4c56)c1c32`, for which the TGI in experiment [9] is over 37 µM; in experiment [1], 20.8 µM; in experiment [10] it was 12.8 µM; in [2], 6.51 µM; in experiment [3], 6.92 µM; in experiment [4], over 50 µM. In addition, the TGI in experiment [5] was over 20.2 µM; in experiment [6], 16.3 µM; in experiment [7] it was over 12.4 µM; in experiment [8] it was over 50 µM.
Turning to `COc1ccc(/C=C(\C(=C/c2ccc(OC)cc2)[N+](=O)[O-])[N+](=O)[O-])cc1`, the TGI in experiment [9] is 79 µM; in experiment [1] it was over 61.3 µM; in experiment [10], 8.87 µM; in experiment [2], 30.9 µM; in [3], 27.3 µM; in experiment [4], 8.89 µM. In addition, the TGI in experiment [5] was 5.97 µM; in experiment [6], over 39.7 µM; in [7], 13 µM; in experiment [8], over 100 µM.
As to `O=C1CCC2(CC1CCSc1ccccc1)OCCO2` (stereo not given), the TGI in experiment [9], in [1], in experiment [10], in [2], in [3] and in [4] was over 100 µM in each case. Further, the TGI in [5], in experiment [6], in [7] and in experiment [8] was over 100 µM throughout.
For `S=c1nc2[nH]c3ccc(Br)cc3c2n[nH]1`, the TGI in experiment [9] was over 100 µM; in experiment [1], over 100 µM; in experiment [10], over 100 µM; in [2], over 100 µM; in experiment [3], 44.4 µM; in [4] it was 30.7 µM. Moreover, the TGI in [5] was over 100 µM; in experiment [6], over 100 µM; in [7], over 100 µM; in experiment [8], 69.3 µM.
`C=CC(C)(C)N[C@@H](C(=O)N1CCC[C@H]1c1nc(-c2nc(C(=O)OCC=C(C)C)c(C)o2)c(C)o1)C(C)C`: the TGI in [9] is 39.4 µM; in [1], over 100 µM; in experiment [10], over 100 µM; in [2], 36 µM; in experiment [3], 91.4 µM; in [4], 38.4 µM. The TGI is 65 µM in experiment [5], over 100 µM in experiment [6], 61.8 µM in [7] and 40.6 µM in [8].
Take `Cc1cn(CC2=NCCCN2)c(=O)[nH]c1=O`: the TGI in experiment [9], in experiment [1], in [2], in experiment [3], in [4] and in experiment [5] was over 100 µM throughout. Moreover, the TGI in experiment [6], in experiment [7] and in experiment [8] was over 100 µM throughout.
Take `Cn1c(-c2ccc[se]2)ccc1-c1ccc(CO)[se]1`: the TGI in experiment [9] was 0.14 µM; in experiment [1] it was over 100 µM; in [10], under 0.0332 µM; in experiment [2] it was 19.3 µM; in experiment [3], over 100 µM; in experiment [4], over 60.5 µM. Further, the TGI in [5] is over 100 µM; in experiment [6], over 100 µM; in [7], over 100 µM; in [8] it was 53.5 µM.
For the compound `NC(c1ccccc1)(C(F)(F)F)P1(=O)OC(=O)c2ccccc2O1` (stereo not given), the TGI in experiment [9], in experiment [1], in [10], in experiment [2], in [3] and in experiment [4] was over 100 µM throughout. Also, the TGI in experiment [5], in [6], in experiment [7] and in experiment [8] was over 100 µM throughout.
As for `O=C1CSC2=NCC3(NN12)c1ccccc1-c1ccccc13`, the TGI in [1], in [10], in experiment [2], in experiment [3], in experiment [4] and in experiment [5] was over 10 µM throughout. The TGI in experiment [6], in [7] and in experiment [8] was over 10 µM throughout.
As to `O=C(Nc1nnc(-c2ccccc2)o1)C(SC(=S)N1CCOCC1)c1ccccc1` (stereo not given), the TGI in experiment [9] is 89.6 µM; in [1], over 100 µM; in experiment [10], over 100 µM; in [3] it was over 100 µM; in experiment [4] it was over 100 µM; in experiment [5], over 100 µM. The TGI was over 100 µM in experiment [6], over 100 µM in [7] and 83.7 µM in experiment [8].
`CC(=Nc1c2ccccc2nc2ccccc12)N(C)C`: the TGI in [1] was over 100 µM; in experiment [10], over 100 µM; in experiment [3] it was 78.8 µM; in experiment [4], 90.3 µM; in experiment [5], 52.4 µM; in [6], 46.8 µM. In addition, the values for the TGI in experiment [7] and in experiment [8] were 38.2 µM and 23.3 µM, respectively.
`CCN(CC)C(=S)N/N=C/c1ccccn1`: the TGI was 1.39 µM in [1]; over 100 µM in [10]; over 100 µM in experiment [2]; 26 µM in experiment [3]; over 100 µM in experiment [4]; over 100 µM in experiment [6]. Besides, the results for the TGI in experiment [7] and in experiment [8] were over 100 µM and over 54.8 µM, respectively.
